“Also recorded” adds a separate entry of the source.
What was measured:
diabetic db/db mice = test: LNP-FGF2, LNP-IL-2, LNP-CHI3L1, LNP-IL-17A mRNA bandages in db/db mice (Example 15); format: in vivo, mouse
Procedure: Two 6-mm punch biopsy full-thickness wounds were created on the dorsum of 16-week-old diabetic db/db mice (FIG. 19A). Macroporous bandages loaded with 4 μg of LNP-FGF2, LNP-IL-2, LNP-CHI3L1, and LNP-IL-17A mRNA were topically applied on the wounds for 10 days. […] The wound size was measured every three days.

db/db mouse model [1] = test: Receptor agonists and antagonists on db/db mouse wounds, day 5 sacrifice; conditions: 2 mg/kg topically daily with blk-gel; Chrm1, Chrm3 or α7nAChR agonist
[2] = molecular target: T1, Acetylcholinesterase (AchE) (Mus musculus, UniProt P21836); test: AchE activity in Day 5 mouse wound lysates; format: in vivo; conditions: Day 5, 2 days after bandage removal
T1 construct: measuring the levels of the enzyme on Day 5 in mouse wounds lysates; from tissue; host or cells: skin wound tissue lysate of db/db mice, Day 5 after wounding
T1 sequence (P21836 32-614): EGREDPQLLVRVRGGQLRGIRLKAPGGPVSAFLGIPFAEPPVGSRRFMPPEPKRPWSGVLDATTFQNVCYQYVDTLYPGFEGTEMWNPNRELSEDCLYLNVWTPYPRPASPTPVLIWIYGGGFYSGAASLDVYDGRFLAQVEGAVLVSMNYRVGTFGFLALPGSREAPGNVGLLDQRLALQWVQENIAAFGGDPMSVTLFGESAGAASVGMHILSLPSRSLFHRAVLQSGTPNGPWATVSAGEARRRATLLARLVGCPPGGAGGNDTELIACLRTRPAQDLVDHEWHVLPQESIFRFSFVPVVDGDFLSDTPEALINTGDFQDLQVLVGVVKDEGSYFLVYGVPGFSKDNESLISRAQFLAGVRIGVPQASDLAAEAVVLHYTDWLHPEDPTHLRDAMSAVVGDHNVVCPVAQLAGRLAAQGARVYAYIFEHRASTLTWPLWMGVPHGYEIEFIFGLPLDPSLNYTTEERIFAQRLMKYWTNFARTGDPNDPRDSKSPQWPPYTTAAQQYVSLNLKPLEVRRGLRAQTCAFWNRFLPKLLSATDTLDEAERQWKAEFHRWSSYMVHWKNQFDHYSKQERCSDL

db/db mouse model [3] = test: LD-Met gel in db/db mice, Day 5 and Day 10 wound analyses; format: in vivo; conditions: Day 5
fibroblasts [4] = test: Nicotinic and muscarinic receptor gene expression, fibroblasts; conditions: 48 hours
diabetic humanized mice = test: Metrifonate hydrogel on diabetic humanized mice wounds; format: in vivo, mouse
Description: These genes are well known to improve impaired diabetic wound healing, see Berry-Kilgour et al., Advancements in the Delivery of Growth Factors and Cytokines for the Treatment of Cutaneous Wound Indications; Adv Wound Care (New Rochelle) 2021; 10(11):596-622. Epub 20201125. doi:10/1089?wound.2020.1183. PubMed PMID:33086946: PMCID: PMC8392095.
To generate a humanized skin graft mice model, Foxn1nu nude male mice of 6 weeks old can be used as the recipient animals. These mice are devoid of T cells and suffer from a lack of cell-mediated immunity making them a model of choice for xenograft studies. […] Following the sustained diabetic state period, wounds are inflicted on the transplanted human skin with a 3 mm punch biopsy, treatment options include the best two Metrifonate-Hydrogel dressings, previously determined by the mice and pig studies for the preferred two doses. […] Wound healing can be monitored using standardized photography daily during the course of 3, 5 and 10 days. […]
To generate a humanized skin graft mice model, Foxn1nu nude male mice of 6 weeks old can be used as the recipient animals. […] Following the sustained diabetic state period, wounds are inflicted on the transplanted human skin with a 3 mm punch biopsy, treatment options include the best two Metrifonate-Hydrogel dressings, previously determined by the mice and pig studies for the preferred two doses. […]

[5] = system: THP-1 derived macrophages; test: Cytokine gene expression in THP-1 derived macrophages polarized to M0, M1, M2; format: cell-based, human
Description: (§1) This concentration was selected for all subsequent experiments (FIG. 24A).

[6] = system: THP-1 monocyte derived macrophages; test: Nicotinic and muscarinic receptor gene expression, THP-1 monocyte derived macrophages; conditions: 48 hours
acute porcine wounds = test: Metrifonate eluting dressings on acute porcine wounds over 20 days
fibroblasts [7] = test: Alamar Blue assay of fibroblast metabolic activity; format: cell-based, human; conditions: over three days after treatment
Description: as §1
Following the in silico prioritization of metrifonate as a key compound in promoting wound healing, we determined if addition of metrifonate influenced key cell functions in tissue cultures of cells that are implicated in wound healing, such as fibroblasts, keratinocytes and macrophages.
In a further example, an alamarBlue™ Assay can be used as follows: Human dermal fibroblasts (immortalized cell line, abm Cat. No. T0904) are cultured in complete medium (PriGrow III with 10% Fetal Bovine Serum, 100U/L penicillin, and 100 ug/L streptomycin) at 37° C. in 5% CO2. The cells are passaged every 7 days using 0.025% trypsin-ethylenediaminetetraacetic acid (Life Technologies) and plated at 10,000 cells per well in 96-well plates. […] Cell viability is determined by alarmarBlue™ (Invitrogen) after 48h, and 72h of incubation. Briefly, after 48 or 72h of incubation the media containing inhibitors is removed and replaced with 10% v/v alamarBlue™ in complete media and the plate is incubated at 37° C. for further 24 h. After this incubation period, plates are read at an excitation range of 540-570 nm and an emission range of 580-610 nm. All AchE inhibitors are expected to not negatively affect cell proliferation up to the concentration of 10 μg/ml.

keratinocytes [8] = test: Wound healing scratch assay of keratinocytes with metrifonate; format: cell-based; conditions: 10 μg/ml, after 24 hours
Procedure: as §1
Keratinocyte HaCaT cells (ATCC) are cultured in complete medium (Dulbecco's Modified Eagle Medium with 10% Fetal Bovine Serum, 100U/L penicillin, and 100 ug/L streptomycin) at 37° C. in 5% CO2. The cells are passaged every 5 days using 0.025% trypsin-ethylenediaminetetraacetic acid (Life Technologies) detachment and plated at 100,000 cells per well in 24-well plates. The cell monolayer is scratched in a straight line using a P200 pipette tip. […] Images are taken immediately after the scratch (0 h), in 6 h, 12 h, 24 h, 48 h, and 72 h for at least four wells per condition. Scratch areas are analyzed using ImageJ/FIJI. At least three independent experiments are performed. All AchE inhibitors are expected to promote faster wound coverage up to the concentration of 10 μg/ml.

keratinocytes [9] = test: Nicotinic and muscarinic receptor gene expression, keratinocytes; conditions: 48 hours
[10] = oral 30-60 mg daily up to 26 weeks; cited from earlier work

## CHI3L1 protein: bandages loaded with CHI3L1 protein employed as additional control
Diabetic db/db mice; 4 μg bandage, D0 to D10
  wound healing during the whole period vs blank bandage (repeated measurement analysis): no differences in wound healing
Diabetic db/db mice; Day 10, compared with blank
  wound reduction on Day 10: similar

## LASSBIo0897
db/db mouse model [1]
  effect of agonist on wound healing: only the M1 agonist accelerated wound healing

## COP(=O)(OC)C(O)C(Cl)(Cl)Cl (stereo not shown) [metrifonate, (2,2,2-trichloro-1-hydroxyethyl) dimethylphosphonate]
[2]
  Acetylcholinesterase (AchE) activity in wounds: inhibits the activity of Acetylcholinesterase (AchE)
db/db mouse model [3]
  total and degranulated mast cells (toluidine blue staining): enrichment of both total and degranulated mast cells
Fibroblasts [4]
  receptor gene expression: activation of CHRNA4; also recorded: increased expression of CHRNA4
Diabetic humanized mice; low dose hydrogel vs blank hydrogel, D0 to D7
  wound healing: improved wound healing
Diabetic humanized mice; upon sacrifice
  expression of Il10, Arg and human gene VEGFA (RT-qPCR): increased the expression
[5]; M0 macrophages
  increase in IL10 gene expression: 30 fold
[5]; M1 cells
  downregulation of IL1b: 12 fold
  downregulation of TNF: 40 fold
[5]; M2 macrophages
  increase in IL10 gene expression: 10 fold
[6]; M0 cells
  receptor gene expression: activation of CHRM3 receptor; also recorded: up-regulation of CHRM3 receptor
[6]; M1 cells
  receptor gene expression: activation of CHRM4; also recorded: higher expression of CHRM4 and CHRNA3 receptors
Acute porcine wounds
  adverse effects: did not induce any adverse effects
  wound lengths in histological assessment: shorter wound lengths
Fibroblasts [7]
  metrifonate concentration that began to negatively affect viability: over 10 μg/ml
Keratinocytes [8]
  keratinocyte migration / scratch wound closure: significantly accelerate migration
Keratinocytes [9]
  receptor gene expression: up-regulation of CHRM3 and CHRNB4 receptors
[10]
  clinical effect in mild-to-moderate Alzheimer's disease: beneficial effect

## C[N+](C)(C)CC#CCOC(=O)Nc1cccc(Cl)c1.[Cl-] [McN-A 343]
db/db mouse model [1]
  effect of agonist on wound healing: promoted the wound healing; also recorded: accelerated wound healing

## O=C(N[C@H]1CN2CCC1CC2)c1ccc(Cl)cc1 [PNU-282987]
db/db mouse model [1]
  effect of agonist on wound healing: only the M1 agonist accelerated wound healing
